Reference: PubChem BioAssay AID256 (DTP/NCI, 2004)
“And” between values parts separate entries of the source, which are not always exact repeats. Equal values may be shown once. Inconclusive results and toxic doses are left out.

Test system: CD2F1 mice, L1210 leukemia ip, survival T/C
Experiment: NCI In Vivo Anticancer Drug Screen. Data for tumor model L1210 Leukemia (intraperitoneal) in CD2F1 (CDF1) mice
Details: higher = longer survival
In short: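 Tumor-bearing mice (transplanted tumor) were split into treated and vehicle control groups, and the measured endpoint of each treated group was divided by that of its vehicle controls.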

`CO[C@@]12[C@H](COC(N)=O)C3=C(C(=O)C(C)=C(N)C3=O)N1C[C@@H]1N[C@@H]12` was tested, and the T/C (endpoint: mean survival time, dose: 0.25 mg/kg/injection, schedule: Q01DX009 (ip), vehicle: saline) was 118 % of control and 121 % of control, the T/C (endpoint: mean survival time, dose: 0.38 mg/kg/injection, schedule: Q01DX009 (ip), vehicle: water) was 103 % of control and the T/C (endpoint: mean survival time, dose: 0.4 mg/kg/injection, schedule: Q04DX003 (ip), vehicle: water) was 111 % of control. For the same molecule, the T/C (endpoint: mean survival time, dose: 0.45 mg/kg/injection, schedule: Q01DX007 (ip), vehicle: acetone) was 117 % of control, the T/C (endpoint: mean survival time, dose: 0.5 mg/kg/injection, schedule: Q01DX009 (ip), vehicle: water) was 113 % of control and the T/C (endpoint: mean survival time, dose: 0.6 mg/kg/injection, schedule: Q01DX001 (ip), vehicle: carboxymethylcellulose (CMC)) was 111 % of control. The T/C (endpoint: mean survival time, dose: 0.65 mg/kg/injection, schedule: Q04DX003 (ip), vehicle: water) was 111 % of control, the T/C (endpoint: mean survival time, dose: 0.68 mg/kg/injection, schedule: Q01DX007 (ip), vehicle: acetone) was 121 % of control and the T/C (endpoint: mean survival time, dose: 0.68 mg/kg/injection, schedule: Q03DX004 (ip), vehicle: acetone) was 119 % of control. The T/C (endpoint: mean survival time, dose: 0.75 mg/kg/injection, schedule: Q01DX005 (ip), vehicle: clinical formulation) was 120 % of control, the T/C (endpoint: mean survival time, dose: 0.75 mg/kg/injection, schedule: Q01DX009 (ip), vehicle: water) was 104 % of control and the T/C (endpoint: mean survival time, dose: 0.87 mg/kg/injection, schedule: Q01DX001 (ip), vehicle: acetone) was 110 % of control. The T/C (endpoint: mean survival time, dose: 1.0 mg/kg/injection, schedule: Q01DX009 (ip), vehicle: water) was 115 % of control, the T/C (endpoint: mean survival time, dose: 1.0 mg/kg/injection, schedule: Q04DX003 (ip), vehicle: saline) was 116 % of control and the T/C (endpoint: mean survival time, dose: 1.1 mg/kg/injection, schedule: Q04DX003 (ip), vehicle: water) was 119 % of control. The T/C (endpoint: mean survival time, dose: 1.2 mg/kg/injection, schedule: Q01DX001 (ip), vehicle: carboxymethylcellulose (CMC)) was 116 % of control, the T/C (endpoint: mean survival time, dose: 1.5 mg/kg/injection, schedule: Q01DX001 (ip), vehicle: saline) was 105 % of control and the T/C (endpoint: mean survival time, dose: 1.5 mg/kg/injection, schedule: Q01DX005 (ip), vehicle: clinical formulation) was 151 % of control. The T/C (endpoint: mean survival time, dose: 1.55 mg/kg/injection, schedule: Q02DX005 (ip), vehicle: saline) was 119 % of control, the T/C (endpoint: mean survival time, dose: 1.55 mg/kg/injection, schedule: Q03DX004 (ip), vehicle: saline) was 116 % of control and the T/C (endpoint: mean survival time, dose: 1.55 mg/kg/injection, schedule: Q04DX003 (ip), vehicle: saline) was 114 % of control. For the same molecule, the T/C (endpoint: mean survival time, dose: 1.55 mg/kg/injection, schedule: Q08DX002 (ip), vehicle: saline) was 104 % of control, the T/C (endpoint: mean survival time, dose: 1.75 mg/kg/injection, schedule: Q01DX001 (ip), vehicle: carboxymethylcellulose (CMC)) was 110 % of control and the T/C (endpoint: mean survival time, dose: 1.75 mg/kg/injection, schedule: Q01DX001 (ip), vehicle: saline) was 120 % of control. The T/C (endpoint: mean survival time, dose: 2.0 mg/kg/injection, schedule: Q01DX009 (ip), vehicle: water) was 107 % of control, the T/C (endpoint: mean survival time, dose: 2.0 mg/kg/injection, schedule: Q04DX003 (ip), vehicle: saline) was 119 % of control and the T/C (endpoint: mean survival time, dose: 2.3 mg/kg/injection, schedule: Q01DX001 (ip), vehicle: acetone) was 150 % of control. For the same molecule, the T/C (endpoint: mean survival time, dose: 2.3 mg/kg/injection, schedule: Q01DX001 (ip), vehicle: carboxymethylcellulose (CMC)) was 118 % of control and 111 % of control, the T/C (endpoint: mean survival time, dose: 2.33 mg/kg/injection, schedule: Q02DX005 (ip), vehicle: saline) was 119 % of control and the T/C (endpoint: mean survival time, dose: 2.33 mg/kg/injection, schedule: Q03DX004 (ip), vehicle: saline) was 123 % of control. For the same molecule, the T/C (endpoint: mean survival time, dose: 2.33 mg/kg/injection, schedule: Q04DX003 (ip), vehicle: saline) was 121 % of control, the T/C (endpoint: mean survival time, dose: 2.33 mg/kg/injection, schedule: Q08DX002 (ip), vehicle: saline) was 111 % of control and the T/C (endpoint: mean survival time, dose: 2.9 mg/kg/injection, schedule: Q01DX001 (ip), vehicle: saline) was 124 % of control. For the same molecule, the T/C (endpoint: mean survival time, dose: 3.0 mg/kg/injection, schedule: Q01DX001 (ip), vehicle: saline) was 124 % of control, the T/C (endpoint: mean survival time, dose: 3.0 mg/kg/injection, schedule: Q01DX005 (ip), vehicle: clinical formulation) was 113 % of control and 98 % of control and the T/C (endpoint: mean survival time, dose: 3.0 mg/kg/injection, schedule: Q01DX009 (ip), vehicle: water) was 101 % of control and 108 % of control. The T/C (endpoint: mean survival time, dose: 3.0 mg/kg/injection, schedule: Q04DX003 (ip), vehicle: saline) was 170 % of control, the T/C (endpoint: mean survival time, dose: 3.5 mg/kg/injection, schedule: Q01DX001 (ip), vehicle: acetone) was 156 % of control and the T/C (endpoint: mean survival time, dose: 3.5 mg/kg/injection, schedule: Q01DX001 (ip), vehicle: carboxymethylcellulose (CMC)) was 155 % of control. For the same molecule, the T/C (endpoint: mean survival time, dose: 3.5 mg/kg/injection, schedule: Q04DX003 (ip), vehicle: saline) was 123 % of control, the T/C (endpoint: mean survival time, dose: 3.5 mg/kg/injection, schedule: Q08DX002 (ip), vehicle: saline) was 121 % of control and the T/C (endpoint: mean survival time, dose: 4.5 mg/kg/injection, schedule: Q01DX001 (ip), vehicle: saline) was 108 % of control. For the same molecule, the T/C (endpoint: mean survival time, dose: 4.7 mg/kg/injection, schedule: Q01DX001 (ip), vehicle: saline) was 122 % of control, the T/C (endpoint: mean survival time, dose: 5.0 mg/kg/injection, schedule: Q04DX003 (ip), vehicle: water) was 150 % of control and the T/C (endpoint: mean survival time, dose: 5.25 mg/kg/injection, schedule: Q01DX001 (ip), vehicle: carboxymethylcellulose (CMC)) was 176 % of control. For the same molecule, the T/C (endpoint: mean survival time, dose: 5.25 mg/kg/injection, schedule: Q01DX004 (ip), vehicle: saline) was 152 % of control, the T/C (endpoint: mean survival time, dose: 5.25 mg/kg/injection, schedule: Q01DX005 (ip), vehicle: saline) was 165 % of control and the T/C (endpoint: mean survival time, dose: 7.0 mg/kg/injection, schedule: Q01DX003 (ip), vehicle: saline) was 150 % of control. The T/C (endpoint: mean survival time, dose: 7.0 mg/kg/injection, schedule: Q04DX003 (ip), vehicle: saline) was 152 % of control, the T/C (endpoint: mean survival time, dose: 8.3 mg/kg/injection, schedule: Q04DX003 (ip), vehicle: water) was 119 % of control and the T/C (endpoint: mean survival time, dose: 10.5 mg/kg/injection, schedule: Q01DX001 (ip), vehicle: carboxymethylcellulose (CMC)) was 114 % of control. For the same molecule, the T/C (endpoint: mean survival time, dose: 12.0 mg/kg/injection, schedule: Q01DX001 (ip), vehicle: saline) was 112 % of control, the T/C (endpoint: median survival time, dose: 0.1 mg/kg/injection, schedule: Q01DX009 (ip), vehicle: saline) was 192 % of control and the T/C (endpoint: median survival time, dose: 0.1 mg/kg/injection, schedule: Q04DX003 (ip), vehicle: saline) was 108 % of control. For the same molecule, the T/C (endpoint: median survival time, dose: 0.12 mg/kg/injection, schedule: Q01DX009 (ip), vehicle: Klucel (hydroxypropylcellulose) (HPC)) was 102 % of control, the T/C (endpoint: median survival time, dose: 0.2 mg/kg/injection, schedule: Q01DX009 (ip), vehicle: saline) was 113 % of control and the T/C (endpoint: median survival time, dose: 0.2 mg/kg/injection, schedule: Q04DX003 (ip), vehicle: saline) was 107 % of control. The T/C (endpoint: median survival time, dose: 0.25 mg/kg/injection, schedule: Q01DX009 (ip), vehicle: Klucel (hydroxypropylcellulose) (HPC)) was 102 % of control, the T/C (endpoint: median survival time, dose: 0.25 mg/kg/injection, schedule: Q01DX009 (ip), vehicle: saline) was 109 % of control and the T/C (endpoint: median survival time, dose: 0.25 mg/kg/injection, schedule: Q01DX009 (ip), vehicle: water) was 115 % of control. For the same molecule, the T/C (endpoint: median survival time, dose: 0.4 mg/kg/injection, schedule: Q01DX001 (ip), vehicle: saline) was 113 % of control, the T/C (endpoint: median survival time, dose: 0.4 mg/kg/injection, schedule: Q01DX009 (ip), vehicle: saline) was 124 % of control and the T/C (endpoint: median survival time, dose: 0.4 mg/kg/injection, schedule: Q04DX003 (ip), vehicle: saline) was 109 % of control. For the same molecule, the T/C (endpoint: median survival time, dose: 0.5 mg/kg/injection, schedule: Q01DX009 (ip), vehicle: Klucel (hydroxypropylcellulose) (HPC)) was 104 % of control, the T/C (endpoint: median survival time, dose: 0.5 mg/kg/injection, schedule: Q01DX009 (ip), vehicle: saline) was 118 % of control and the T/C (endpoint: median survival time, dose: 0.75 mg/kg/injection, schedule: Q01DX001 (ip), vehicle: saline) was 115 % of control. For the same molecule, the T/C (endpoint: median survival time, dose: 0.8 mg/kg/injection, schedule: Q01DX001 (ip), vehicle: saline) was 112 % of control, the T/C (endpoint: median survival time, dose: 0.8 mg/kg/injection, schedule: Q04DX003 (ip), vehicle: saline) was 124 % of control and the T/C (endpoint: median survival time, dose: 1.0 mg/kg/injection, schedule: Q01DX009 (ip), vehicle: Klucel (hydroxypropylcellulose) (HPC)) was 116 % of control. For the same molecule, the T/C (endpoint: median survival time, dose: 1.6 mg/kg/injection, schedule: Q01DX009 (ip), vehicle: saline) was 165 % of control, the T/C (endpoint: median survival time, dose: 1.8 mg/kg/injection, schedule: Q01DX001 (ip), vehicle: water) was 116 % of control and 102 % of control and 105 % of control and the T/C (endpoint: median survival time, dose: 2.4 mg/kg/injection, schedule: Q03DX003 (ip), vehicle: saline) was 118 % of control and 203 % of control. For the same molecule, the T/C (endpoint: median survival time, dose: 3.2 mg/kg/injection, schedule: Q01DX009 (ip), vehicle: saline) was 96 % of control, the T/C (endpoint: median survival time, dose: 3.2 mg/kg/injection, schedule: Q04DX003 (ip), vehicle: saline) was 168 % of control and the T/C (endpoint: median survival time, dose: 3.6 mg/kg/injection, schedule: Q01DX001 (ip), vehicle: saline) was 155 % of control and 160 % of control. For the same molecule, the T/C (endpoint: median survival time, dose: 4.0 mg/kg/injection, schedule: Q01DX009 (ip), vehicle: saline) was 97 % of control, the T/C (endpoint: median survival time, dose: 4.8 mg/kg/injection, schedule: Q01DX001 (ip), vehicle: saline) was 166 % of control and the T/C (endpoint: median survival time, dose: 4.8 mg/kg/injection, schedule: Q03DX003 (ip), vehicle: saline) was 190 % of control. For the same molecule, the T/C (endpoint: median survival time, dose: 5.0 mg/kg/injection, schedule: Q01DX001 (ip), vehicle: water) was 113 % of control and 115 % of control, the T/C (endpoint: median survival time, dose: 5.4 mg/kg/injection, schedule: Q01DX001 (ip), vehicle: saline) was 166 % of control and the T/C (endpoint: median survival time, dose: 6.0 mg/kg/injection, schedule: Q01DX009 (ip), vehicle: clinical formulation) was 98 % of control. The T/C (endpoint: median survival time, dose: 6.4 mg/kg/injection, schedule: Q01DX001 (ip), vehicle: saline) was 156 % of control, the T/C (endpoint: median survival time, dose: 8.0 mg/kg/injection, schedule: Q01DX001 (ip), vehicle: saline) was 156 % of control and 172 % of control and the T/C (endpoint: median survival time, dose: 8.3 mg/kg/injection, schedule: Q01DX001 (ip), vehicle: water) was 123 % of control.
